The values that follow come from PubChem BioAssay (NCI).

Assay in all cases: NCI anticancer screen, dose series, 48 h
Assay [1] deals with SW-620 colon.
For assay [2], the system named is NCI-H226 lung.
The subject of assay [3] is K-562 leukemia.
Assay [4] deals with SNB-75 CNS.
The test system of assay [5] is RPMI-8226 leukemia.
Assay [6] concerns SK-MEL-28 melanoma.
Assay [7] has as its system SF-268 CNS.
In assay [8] the test system is HL-60(TB) leukemia.
For assay [9], the system named is SR leukemia.
In assay [10] the test system is ACHN renal.

Where “and” joins values, the source holds several entries; their conditions need not be identical. Equal values may be shown once.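 Exposure lasted 48 hours, with cells grown in 96-well plates and compounds tested at five concentrations. GI50 = concentration required for 50% inhibition of growth. Definition used: TGI = concentration required for complete inhibition of growth.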

On to `O=[N+]([O-])C1(C2([N+](=O)[O-])CCCC2)CCCC1`, for which the TGI in assay [1], in assay [2], in assay [3], in assay [4], in assay [5] and in assay [6] was greater than 100 µM each time. Also, the TGI in assay [7], in [8] and in assay [9] was greater than 100 µM each time.
`N#Cc1c(NC(=S)NCc2ccccc2)sc2c1CCN(N1CCc3c(sc(NC(=S)NCc4ccccc4)c3C#N)C1)C2`: the TGI in assay [1], in assay [2], in assay [3], in assay [4], in assay [6] and in assay [7] was greater than 100 µM throughout. In addition, the TGI in assay [10], in [8] and in assay [9] was greater than 100 µM throughout.
`COc1ccc(NC2=NCCO2)c2ccccc12`: the TGI in [1], in [2], in [3], in [4], in assay [5] and in assay [6] was greater than 10 µM in each case. Also, the TGI in assay [7], in assay [10], in [8] and in [9] was greater than 10 µM each time.
`Cc1cn(C2CC(N=[N+]=[N-])C(CO[Si](C)(C)C(C)(C)C)O2)c(=O)[nH]c1=O` (stereo not given): the TGI worked out at 35.7 µM in [1]; 29.6 µM in [2]; 47.6 µM in assay [3]; 42.9 µM in assay [4]; 47.1 µM in assay [5]; 45.8 µM in assay [7]. In addition, the values for the TGI in [10], in assay [8] and in assay [9] were 48 µM, 72.4 µM and 56.8 µM, respectively.
Take `Cc1ccc(S(=O)(=O)N/N=C2\C=C[C@]3(CC2)C(=O)N(C)c2ccccc23)cc1`: the TGI in [1], in assay [2], in assay [3], in assay [4], in assay [5] and in [6] was greater than 100 µM in each case. In addition, the TGI in assay [7], in [10], in assay [8] and in assay [9] was greater than 100 µM each time.
With `C=CCn1c(=O)c(C)cn(/C(=C/C(=O)OCC)C(=O)OCC)c1=O`, the TGI in assay [1] is 15.5 µM; in [2], greater than 54.7 µM; in [3], 17.1 µM; in [4] it was 25.6 µM; in [5], 39.5 µM; in assay [6], 32.3 µM. The TGI in assay [7] is 44.3 µM; in assay [10], 21.2 µM; in assay [8], 5.48 µM; in assay [9] it was 13.3 µM.
In the case of `CC1=C(C(=O)OC(C)C)C(c2ccccc2[N+](=O)[O-])C(C(=O)OC(CO[N+](=O)[O-])CO[N+](=O)[O-])=C(C)N1` (stereo not given), the TGI in [1] is 18.9 µM; in assay [2], 28.5 µM; in assay [3] it was 71.6 µM; in assay [4], 8.19 µM; in [5], greater than 100 µM; in assay [6], 17.9 µM. Moreover, the TGI in assay [7] was 16.8 µM; in assay [10], 23.7 µM; in assay [8], greater than 100 µM; in assay [9] it was greater than 100 µM.
With `Cn1c(=O)n(CC(Br)CBr)c(=O)n(CC(Br)CBr)c1=O` (stereo not given), the TGI was greater than 100 µM in assay [1]; 58.9 µM in assay [2]; greater than 100 µM in [3]; greater than 100 µM in [4]; 63.8 µM in [5]; greater than 100 µM in [6]. Moreover, the TGI in [7] was greater than 100 µM; in [10], greater than 100 µM; in [8] it was 58 µM; in assay [9] it was 37.4 µM.
For `CO[C@H]1O[C@@H]2CO[C@@H](c3ccccc3)O[C@H]2C[C@]12CCC/C=C\CO2`, the TGI in assay [1] is 61.1 µM; in assay [2], 50.9 µM; in assay [3], 35.7 µM; in [4], 61.8 µM; in [6], 26.6 µM; in [7], 32.1 µM. Also, the TGI in [10] turned out to be 35 µM; in [8] it was 54.7 µM; in assay [9], 31.8 µM.
On to `NC(=O)N(O)c1cccc(Br)c1`, for which the TGI in assay [1], in [2], in [3], in assay [4], in [5] and in assay [6] was greater than 100 µM throughout. Also, the TGI in assay [7], in assay [10], in assay [8] and in [9] was greater than 100 µM each time.
`CC(=O)c1cccc(NC2C(N)C(NC(=O)N(C)C)(C(C)O)C(C)(O)C2(O)COC(=O)c2c(C)cccc2O)c1` (stereo not given): the TGI in assay [1] is 1.75 µM; in assay [2], 0.00141 µM; in assay [3], 0.15 µM; in [6], 1.04 µM and 0.532 µM; in assay [10], 0.334 µM and 0.539 µM; in [8], less than 0.001 µM. The same molecule had a TGI in assay [9] greater than 100 µM. Also, the GI50 in assay [4] and in assay [7] was less than 0.001 µM in each case.
Consider `CC1(C)CC(=O)c2c(nc3ccc4ccccc4c3c2-c2ccc(NC(=O)CCCCC(=O)Nc3ccc(-c4c5c(nc6ccc7ccccc7c46)CC(C)(C)CC5=O)cc3)cc2)C1`, for which the TGI in [1], in assay [2], in [3], in [4], in [5] and in assay [6] was greater than 100 µM throughout. Moreover, the TGI in [7], in [10], in [8] and in assay [9] was greater than 100 µM each time.
Turning to `O=C1c2cc(CCl)sc2C(=O)c2ccsc21`, the TGI was found to be 0.387 µM in assay [1]; 3.1 µM in assay [2]; 0.478 µM in assay [3]; 0.38 µM in assay [4]; 0.558 µM in assay [5]; 0.149 µM in [6]. The TGI in assay [7] is 0.676 µM; in assay [10], 1.25 µM; in [8], 0.497 µM; in assay [9] it was 0.571 µM.
